Source: US20250320501A1, “PALMITOYLATION OF THE ALTERNATIVE AMINO TERMINUS OF THE BTK-C ISOFORM CONTROLS SUBCELLULAR DISTRIBUTION AND SIGNALING” (The Research Foundation for the State University of New York, priority 2022, published 2025)

Legend:
BTK-C [1] = biological target: T1, BTK-C (Homo sapiens, UniProt Q06187, M35A); experiment: Acyl incorporation assay (click chemistry after Flag immunoprecipitation), BTK-C; type: cell-based; settings: HEK293 cells co-expressing zDHHC5, 100 μM analogue for 4 h
T1 construct: cells expressing Flag-tagged, full-length versions of BTK-A and BTK-C; expressed in transfected cells; host or cells: HEK293
T1 sequence (Q06187 1-693 isoform Q06187-2 M35A): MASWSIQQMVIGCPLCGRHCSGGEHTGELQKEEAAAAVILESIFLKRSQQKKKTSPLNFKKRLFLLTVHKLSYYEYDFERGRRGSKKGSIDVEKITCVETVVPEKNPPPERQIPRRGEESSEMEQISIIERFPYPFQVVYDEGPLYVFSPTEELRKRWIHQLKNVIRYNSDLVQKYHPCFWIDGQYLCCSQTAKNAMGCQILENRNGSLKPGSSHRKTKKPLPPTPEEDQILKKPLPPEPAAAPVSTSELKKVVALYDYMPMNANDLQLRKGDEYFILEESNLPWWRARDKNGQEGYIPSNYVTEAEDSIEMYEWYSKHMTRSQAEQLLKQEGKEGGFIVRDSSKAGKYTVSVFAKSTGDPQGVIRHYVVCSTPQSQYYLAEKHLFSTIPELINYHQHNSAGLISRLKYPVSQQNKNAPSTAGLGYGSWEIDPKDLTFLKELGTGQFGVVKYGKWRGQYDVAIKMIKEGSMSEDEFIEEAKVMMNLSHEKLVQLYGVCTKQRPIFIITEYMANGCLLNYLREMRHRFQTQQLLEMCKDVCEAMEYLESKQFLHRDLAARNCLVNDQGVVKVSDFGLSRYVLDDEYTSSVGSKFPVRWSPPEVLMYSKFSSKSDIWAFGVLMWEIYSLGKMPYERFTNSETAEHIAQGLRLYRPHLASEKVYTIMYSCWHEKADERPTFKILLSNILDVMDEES
Experimental: (§1) FIG. 2A-D presents the BTK-C isoform palmitoylated: FIG. 2A presents a diagram of BTK isoform C-terminal Flag-tagged constructs: FIG. 2B presents an expression of Flag-tagged constructs in MDA-MB-231 cells; FIG. 2C presents detection scheme for acylated BTK isoforms. Cells were incubated with 17-ODYA. Flag immunoprecipitates were reacted with azide-activated biotinylation reagent and detected through reaction with streptavidin-linked horseradish peroxidase; and FIG. 2D presents HEK293 cells were transfected with 1 μg of BTK-A, BTK-C, or BTK-C C13A, C16A and 2 μg of a plasmid expressing zDHHC5. 24 h after transfection cells were incubated for 4 h with 100 μM palmitic acid alkyne (17-ODYA). Cell lysate supernatants were immunoprecipitated with Anti-Flag M2 affinity gel (Sigma) at 4° C. overnight, subjected to click chemistry with 20 μM biotin picolyl azide for 30 m at room temperature before electrophoresis and blotting.
Reporter construction and viral transgenesis: GFP fusion constructs were generated using a BTK pleckstrin homology domain fusion protein vector, PH-Btk-GFP (Addgene Plasmid #51463). BTK constructs (BTK-A R28C; BTK-C; BTK-C R28C; BTK-C C13A, C16A; BTK-C C13A,C16A,R28C) were generated in this plasmid using QuikChange site directed mutagenesis. The exon 1C sequence (FIG. 1B) was subcloned from the original cDNA isolate. To prevent internal translational initiation at the BTK-A ATG, this codon was changed to Ala in all BTK-C constructs. Production of either the 77 kDa BTK-A isoform or the 65 kDa p65BTK was not observed for BTK-C constructs. GFP reporters were subcloned into MARXIVpuro REV plasmid (22). Full-length mutant proteins were produced by subcloning into a BTK gene with a C-terminal Flag tag expressed from a MARXIVpuro REV vector. DNA sequence was confirmed by DNA sequence analysis for all constructs. ϕNX-Ampho cells were transfected with Flag-tagged versions of BTK as described. Empty vector was used as a control. A lentivirus-born shRNA targeting the chromosomal BTK 3′UTR TRCN0000000358 (Sigma-Aldrich, Saint Louis, MO) was used to silence endogenous BTK isoform expression such that each line predominantly expresses the wild-type or mutant version of the intended isoform. BTK acylation: HEK293 cells plated on 6 wells plates were transfected using X-tremeGENE HP transfection reagent (Sigma-Aldrich, Saint Louis, MO) with 1 μg of BTK-C, BTK-A, or BTK-C C13A, C16A with 2 μg of zDHHC5 plasmid. 24 hours after transfection, cells were incubated with 100 μM of palmitic acid alkyne (in DMEM with 1 mg/ml defatted BSA) for 4 h at 37° C. Cells were washed twice in PBS, then lysed on ice in 50 mM Tris HCl, pH 7.4 with 150 mM NaCl, 1 mM EDTA, 1% TRITON X-100 and protein inhibitors. […]

BTK-C [2] = experiment: Activating tyrosine phosphorylation of BTK-C after insulin stimulation (immunoblot densitometry); type: cell-based, human; settings: transfected HEK293 cells
Experimental: (§2) FIG. 5A-D present activating tyrosine phosphorylation of the BTK isoforms. BTK-A, BTK-C and BTK-C C13, C16 mutant constructs were transfected into HEK293 cell and after 24 hours stimulated with insulin. Values represent fold tyrosine-phosphorylated signal normalized to total BTK-A or BTK-C(anti-Flag) determined by densitometry; FIG. 5B presents phosphorylation of the BTK target tyrosine 759 of PLCγ2 in transfected HEK293 cells; FIG. 5C presents BTK-C expression increases proliferation rate of MDA-MB-231 (PTEN+) but not SUM149 (PTEN−) cells. Cells were seeded in 96 well plates and fixed with 4% formaldehyde and counted at 72 hours. Data were normalized to control and are presented as mean+SD. *p<0.05 using Student's ttest, n=3; and FIG. 5D presents BTK-C increases glucose uptake in MDA-MB-231 (PTEN+) but not SUM149 (PTEN−) cells. Cells were seeded and treated with 100 μM 2-NBDG for 15 min. Fluorescence images were acquired with an InCell 2200 and overall fluorescence intensity quantified. […]
(§3) Embodiment disclosed herein included the following materials and methods: Cell lines MD-AMB-231, BT549, SUM149, SKBr3 and ϕNX-AMPHO were obtained from the American Type Culture Collection (ATCC). […] In growth and uptake experiments, differences between control and treatment conditions were evaluated using Student's t test for pairwise comparisons. […]

BTK-A [3] = experiment: Activating tyrosine phosphorylation of BTK-A after insulin stimulation (immunoblot densitometry); type: cell-based, human; settings: transfected HEK293 cells
Experimental: as §2, §3

BTK-A and BTK-C = experiment: Activating phosphorylation of BTK isoforms after stimulation with other ligands; type: cell-based, human; settings: ligand stimulation (not shown)
[4] = system: LNCaP C42b prostate cancer cell line; experiment: Toxicity of PI3K inhibition in LNCaP C42b cells; type: cell-based; settings: PTEN- LNCaP C42b prostate cancer cell line, compared with breast cells
breast cells = experiment: Toxicity of PI3K inhibition in breast cells; type: cell-based; settings: breast cells (not shown)
Text: Regulation of BTK-C localization and activity by PIP3 levels: Activation of BTK-A in B cells has been extensively studied. Adsorption of BTK-A to the B cell plasma membrane is driven by binding to PIP3 which opens the BTK monomer conformation allowing dimerization, auto-activation (Y223 phosphorylation) and transactivation (Y551 phosphorylation). […] Mutation of the analogous arginine in BTK-C(R62 in BTK-C) causes it to fail to localize to the membrane (FIG. 3S). […] For example, MDA-MB-231 cells which are PTEN^+ display less plasma membrane staining when compared to SUM149 cells which are PTEN. […] This PIP3-dependent activation may occur through BTK-C dimer formation through juxtaposed membrane-bound PH domains as occurs with the BTK-A. Using an assay developed by Chung et al., co-transfecting BTK-C with the BTK-C-GFP construct which contains the PH domain but is missing the kinase domain reduces Y551 phosphorylation compared with vector or BTK-C only (FIG. 4D).

BTK-A [5] = biological target: T2, BTK-A (Homo sapiens, UniProt Q06187); experiment: Acyl incorporation assay (click chemistry after Flag immunoprecipitation), BTK-A; type: cell-based; settings: HEK293 cells co-expressing zDHHC5, 100 μM analogue for 4 h
T2 construct: cells expressing Flag-tagged, full-length versions of BTK-A and BTK-C; expressed in transfected cells; host or cells: HEK293
T2 sequence (Q06187 whole entry): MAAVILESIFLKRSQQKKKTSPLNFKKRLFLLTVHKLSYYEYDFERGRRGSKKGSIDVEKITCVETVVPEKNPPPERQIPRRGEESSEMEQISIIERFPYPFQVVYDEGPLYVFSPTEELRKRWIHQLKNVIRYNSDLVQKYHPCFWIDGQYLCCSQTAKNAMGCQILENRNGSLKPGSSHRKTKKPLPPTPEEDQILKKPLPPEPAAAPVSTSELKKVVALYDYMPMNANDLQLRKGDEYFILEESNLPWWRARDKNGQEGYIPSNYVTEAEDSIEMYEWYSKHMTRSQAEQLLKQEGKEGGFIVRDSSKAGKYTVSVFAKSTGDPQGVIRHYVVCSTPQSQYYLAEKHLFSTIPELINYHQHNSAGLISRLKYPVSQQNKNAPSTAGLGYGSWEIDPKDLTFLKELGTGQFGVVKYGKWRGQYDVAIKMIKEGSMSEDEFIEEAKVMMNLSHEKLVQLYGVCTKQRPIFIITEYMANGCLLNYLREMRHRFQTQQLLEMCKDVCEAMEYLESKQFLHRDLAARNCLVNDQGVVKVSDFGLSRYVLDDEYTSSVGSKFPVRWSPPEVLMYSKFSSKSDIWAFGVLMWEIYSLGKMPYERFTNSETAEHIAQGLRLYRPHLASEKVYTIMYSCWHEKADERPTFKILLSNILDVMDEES
Experimental: as §1
Reporter construction and viral transgenesis: GFP fusion constructs were generated using a BTK pleckstrin homology domain fusion protein vector, PH-Btk-GFP (Addgene Plasmid #51463). BTK constructs (BTK-A R28C; BTK-C; BTK-C R28C; BTK-C C13A, C16A; BTK-C C13A,C16A,R28C) were generated in this plasmid using QuikChange site directed mutagenesis. The exon 1C sequence (FIG. 1B) was subcloned from the original cDNA isolate. […]

[6] = insulin stimulation under reduced serum conditions

Question: For `CCCCC/C=C\C/C=C\C/C=C\C/C=C\CCCC(=O)O` [arachidonic acid], which “incorporation of acyl analogue label into BTK-C” value (BTK-C [1]) is on record?
Answer: The value was “failed to observe incorporation”.

Question: Which “transactivation (phosphorylation of BTK by its dimerized partner) of BTK-C” value (BTK-C [2]; insulin stimulation (FIG. 5A)) does the source give for “Insulin: common activator of PI3K in cancer cells” here?
Answer: The value was “largely unchanged”.

Question: And the “increase of Y551 phosphorylation of BTK-C” value (BTK-C [2]; [6])?
Answer: Its value is ~24%.

Question: What about the “transactivation (phosphorylation of BTK by its dimerized partner) of BTK-A” value (BTK-A [3]; insulin stimulation (FIG. 5A)) of the same molecule?
Answer: The value was “largely unchanged”.

Question: And the “increase of Y551 phosphorylation of BTK-A” value (BTK-A [3]; [6])?
Answer: Its value is “two-fold”.

Question: How did the “incorporation of acyl analogue label into BTK-C” value (BTK-C [1]) turn out when `CCCCCCCC/C=C\CCCCCCCC(=O)O` [oleic acid] was run?
Answer: The value was “failed to observe incorporation”.

Question: For “EGF: ligand used for stimulation of BTK activation (NSDSECPLSHDGYCLHDGVCMYIEALDKYACNCVVGYIGERCQYRDLKWWELR; UniProt P01133 971-1023, looked up)”, which “increase of activating phosphorylation levels above unstimulated levels” value (BTK-A and BTK-C) is on record?
Answer: Its value is “only modestly”.

Question: Which “incorporation of acyl analogue label into BTK-C” value (BTK-C [1]) does the source give for `CCCCCC/C=C\CCCCCCCC(=O)O` [palmitoleic acid] here?
Answer: Its value is “failed to observe incorporation”.

Question: With `C[C@H](Nc1ncnc2[nH]cnc12)c1cc2cccc(Cl)c2c(=O)n1-c1ccccc1` [IPI-145, Duvelisib] as the molecule, how does the toxicity [4] read?
Answer: Its toxicity is “less toxicity”.

Question: And the toxicity (breast cells)?
Answer: Its toxicity is “significant toxicity”.

Question: With `C#CCCCCCCCCCCCCCCCC(=O)O` [17-ODYA, 17-octadecynoic acid] as the molecule, how does the “incorporation of acyl analogue label into BTK-A” value (BTK-A [5]) read?
Answer: Its value is “not”.

Question: And the “incorporation of acyl analogue label into BTK-C” value (BTK-C [1])?
Answer: Its value is “label is increased”.
